Assay results from patent US20260116944A1, “NOVEL TRIPLE GLP-1/GIP/GLUCAGON RECEPTOR AGONIST AND A PHARMACEUTICAL COMPOSITION FOR PREVENTING OR TREATING OBESITY COMPRISING THE SAME” (HANMI PHARM. CO., LTD., priority 2022, published 2026).
*1 amine or outer side, *2 acyl side, *3 side chain or, on linkers, in order; H or OH if unused. Bridges are numbered along the chain shown (N, C = ends). Where no end group is shown, it is not given here. Side-chain parts run from the residue outwards. [ ]: non-standard residue; d: D form. The star is where a group is joined. C20 diacid = O=C(O)CCCCCCCCCCCCCCCCCCC(=O)*; γGlu = O=C(O)[C@H](CCC(=O)[*:2])N[*:1]; AEEA = NCCOCCOCC(=O)O; Aib = CC(C)(N)C(=O)O

Experiment: Weight loss effect in AMLN diet-induced obese mice
Type: in vivo
Conditions: 351 ug/kg, Q2D, subcutaneously, 2 weeks, vs. excipient control, p<0.001 one-way ANOVA, FIG. 1
Experimental: In order to confirm the weight loss effect of each of the three triple agonists of SEQ ID NO: 1, SEQ ID NO: 2, and SEQ ID NO: 4 prepared in the Example above, an AMLN (amylin) mouse model, known as an obesity model, was used. AMLN diet-induced mice were divided into an excipient control group and groups administered with three types of triple agonists (351 ug/kg, Q2D, subcutaneously), and the administration was repeated for 2 weeks.
After repeated administration for 2 weeks, the body weight was measured, and the change in body weight relative to the body weight immediately before administration (DO) was measured to evaluate weight loss effect.

Substance | weight loss efficacy (change in body weight relative to immediately before administration)
Y-Aib-QGTFTSDYSK(1)YLDEKRAKEFVQWLLDHHPSSGQPPPS (Y[Aib]QGTFTSDYSK([AEEA-AEEA-γGlu-C20 diacid])YLDEKRAKEFVQWLLDHHPSSGQPPPS-NH2; lactam 16-20; N-terminus assumed; SMILES CC(C)C[C@H](NC(=O)[C@H](Cc1ccc(O)cc1)NC(=O)[C@H](CCCCNC(=O)COCCOCCNC(=O)COCCOCCNC(=O)CC[C@H](NC(=O)CCCCCCCCCCCCCCCCCCC(=O)O)C(=O)O)NC(=O)[C@H](CO)NC(=O)[C@H](Cc1ccc(O)cc1)NC(=O)[C@H](CC(=O)O)NC(=O)[C@H](CO)NC(=O)[C@@H](NC(=O)[C@H](Cc1ccccc1)NC(=O)[C@@H](NC(=O)CNC(=O)[C@H](CCC(N)=O)NC(=O)C(C)(C)NC(=O)[C@@H](N)Cc1ccc(O)cc1)[C@@H](C)O)[C@@H](C)O)C(=O)N[C@@H](CC(=O)O)C(=O)N[C@H]1CCC(=O)NCCCC[C@@H](C(=O)N[C@@H](CCC(=O)O)C(=O)N[C@@H](Cc2ccccc2)C(=O)N[C@H](C(=O)N[C@@H](CCC(N)=O)C(=O)N[C@@H](Cc2c[nH]c3ccccc23)C(=O)N[C@@H](CC(C)C)C(=O)N[C@@H](CC(C)C)C(=O)N[C@@H](CC(=O)O)C(=O)N[C@@H](Cc2c[nH]cn2)C(=O)N[C@@H](Cc2c[nH]cn2)C(=O)N2CCC[C@H]2C(=O)N[C@@H](CO)C(=O)N[C@@H](CO)C(=O)NCC(=O)N[C@@H](CCC(N)=O)C(=O)N2CCC[C@H]2C(=O)N2CCC[C@H]2C(=O)N2CCC[C@H]2C(=O)N[C@@H](CO)C(N)=O)C(C)C)NC(=O)[C@H](C)NC(=O)[C@H](CCCNC(=N)N)NC(=O)[C@H](CCCCN)NC1=O) [SEQ ID NO: 2, acylated triple agonist peptide, K(1) at position 12, lactam bridge E16-K20] | significant weight loss efficacy
Y-Aib-QGTFTSDYSK(1)YLDEKRAKDFVQWLLDHHPSSGQPPPS (Y[Aib]QGTFTSDYSK([AEEA-AEEA-γGlu-C20 diacid])YLDEKRAKDFVQWLLDHHPSSGQPPPS-NH2; lactam 16-20; N-terminus assumed; SMILES CC(C)C[C@H](NC(=O)[C@H](Cc1ccc(O)cc1)NC(=O)[C@H](CCCCNC(=O)COCCOCCNC(=O)COCCOCCNC(=O)CC[C@H](NC(=O)CCCCCCCCCCCCCCCCCCC(=O)O)C(=O)O)NC(=O)[C@H](CO)NC(=O)[C@H](Cc1ccc(O)cc1)NC(=O)[C@H](CC(=O)O)NC(=O)[C@H](CO)NC(=O)[C@@H](NC(=O)[C@H](Cc1ccccc1)NC(=O)[C@@H](NC(=O)CNC(=O)[C@H](CCC(N)=O)NC(=O)C(C)(C)NC(=O)[C@@H](N)Cc1ccc(O)cc1)[C@@H](C)O)[C@@H](C)O)C(=O)N[C@@H](CC(=O)O)C(=O)N[C@H]1CCC(=O)NCCCC[C@@H](C(=O)N[C@@H](CC(=O)O)C(=O)N[C@@H](Cc2ccccc2)C(=O)N[C@H](C(=O)N[C@@H](CCC(N)=O)C(=O)N[C@@H](Cc2c[nH]c3ccccc23)C(=O)N[C@@H](CC(C)C)C(=O)N[C@@H](CC(C)C)C(=O)N[C@@H](CC(=O)O)C(=O)N[C@@H](Cc2c[nH]cn2)C(=O)N[C@@H](Cc2c[nH]cn2)C(=O)N2CCC[C@H]2C(=O)N[C@@H](CO)C(=O)N[C@@H](CO)C(=O)NCC(=O)N[C@@H](CCC(N)=O)C(=O)N2CCC[C@H]2C(=O)N2CCC[C@H]2C(=O)N2CCC[C@H]2C(=O)N[C@@H](CO)C(N)=O)C(C)C)NC(=O)[C@H](C)NC(=O)[C@H](CCCNC(=N)N)NC(=O)[C@H](CCCCN)NC1=O) [SEQ ID NO: 4, acylated triple agonist peptide, K(1) at position 12, lactam bridge E16-K20] | significant weight loss efficacy
Y-Aib-QGTFTSDYSK(1)YLDEKAAKEFVQWLLDHHPSSGQPPPS (Y[Aib]QGTFTSDYSK([AEEA-AEEA-γGlu-C20 diacid])YLDEKAAKEFVQWLLDHHPSSGQPPPS-NH2; lactam 16-20; N-terminus assumed; SMILES CC(C)C[C@H](NC(=O)[C@H](Cc1ccc(O)cc1)NC(=O)[C@H](CCCCNC(=O)COCCOCCNC(=O)COCCOCCNC(=O)CC[C@H](NC(=O)CCCCCCCCCCCCCCCCCCC(=O)O)C(=O)O)NC(=O)[C@H](CO)NC(=O)[C@H](Cc1ccc(O)cc1)NC(=O)[C@H](CC(=O)O)NC(=O)[C@H](CO)NC(=O)[C@@H](NC(=O)[C@H](Cc1ccccc1)NC(=O)[C@@H](NC(=O)CNC(=O)[C@H](CCC(N)=O)NC(=O)C(C)(C)NC(=O)[C@@H](N)Cc1ccc(O)cc1)[C@@H](C)O)[C@@H](C)O)C(=O)N[C@@H](CC(=O)O)C(=O)N[C@H]1CCC(=O)NCCCC[C@@H](C(=O)N[C@@H](CCC(=O)O)C(=O)N[C@@H](Cc2ccccc2)C(=O)N[C@H](C(=O)N[C@@H](CCC(N)=O)C(=O)N[C@@H](Cc2c[nH]c3ccccc23)C(=O)N[C@@H](CC(C)C)C(=O)N[C@@H](CC(C)C)C(=O)N[C@@H](CC(=O)O)C(=O)N[C@@H](Cc2c[nH]cn2)C(=O)N[C@@H](Cc2c[nH]cn2)C(=O)N2CCC[C@H]2C(=O)N[C@@H](CO)C(=O)N[C@@H](CO)C(=O)NCC(=O)N[C@@H](CCC(N)=O)C(=O)N2CCC[C@H]2C(=O)N2CCC[C@H]2C(=O)N2CCC[C@H]2C(=O)N[C@@H](CO)C(N)=O)C(C)C)NC(=O)[C@H](C)NC(=O)[C@H](C)NC(=O)[C@H](CCCCN)NC1=O) [SEQ ID NO: 1, acylated triple agonist peptide, K(1) at position 12, lactam bridge E16-K20, C-terminus amidated] | significant weight loss efficacy
